Assay results reported in patent US20240285634A1, “COMPOUND AND METHOD FOR TREATING CHEMOTHERAPY-ASSOCIATED GASTROINTESTINAL SIDE EFFECTS” (ONQUALITY PHARMACEUTICALS CHINA LTD., priority 2021, published 2024).
Where a name gives a salt, the structure may show the parent alone.

Key:
[1] = test system: Chemotherapeutic agent-caused constipation models of Balb/c mice; experiment: Relieving effect on constipation caused by a chemotherapeutic agent (Examples 202-364); format: in vivo; conditions: for feces reduction rates compared with the chemotherapeutic agent group: administered before the chemotherapeutic agent, Table 4 and FIG. 4
From the text: Construction of mouse animal models: Chemotherapeutic agent-caused constipation models of Balb/c mice were constructed according to the administration mode and frequency of the chemotherapeutic agent as shown in Table 4. […] Thus, chemotherapeutic agent-caused constipation models of mice are very good models to mimic constipation caused by the chemotherapeutic agent.
Balb/c mice were fed for 1 week, and then divided into groups. The experiment was divided into a control group, a chemotherapeutic agent group, and a group of the compound as shown in Formula I, each of which comprised 10 mice, to perform the administration experiment, for which the administration dosage, mode, time and frequency were shown in Table 4. The control group: being injected or intragastrically administered with the same solvent as that used in the group of the compound as shown in Formula I (the administration mode and time were shown in Table 4), and then being injected or intragastrically administered with the same solvent as that used in the chemotherapeutic agent group (the administration mode was shown in Table 4); the chemotherapeutic agent group: being injected or intragastrically administered with the same solvent as that used in the group of the compound as shown in Formula I (the administration mode and time was shown in Table 4), and then being injected or intragastrically administered with the chemotherapeutic agent (the type, administration mode and dosage were shown in Table 4); the group of the compound as shown in Formula I: being injected or intragastrically administered with the compound as shown in Formula I (the administration mode and time was shown in Table 4), and then being administered with the chemotherapeutic agent (the administration mode and dosage were shown in Table 4).
(§1) The feces reduction rate was calculated with reference to the method of Ji Eun Kim (Lab Anim Res. 2016 December; 32(4): 231-240.). Feces reduction rate (%)=(the control group−the chemotherapeutic agent group or the group of the compound as shown in Formula I)/the control group*100%
(§2) It is regarded as effective remission when the feces reduction rate of mice in the group of the compound as shown in Formula I is reduced compared with that in the chemotherapeutic agent group.
(§3) The feces amount of mice within 3 hours was observed and recorded every day. At the end of the experiment, the number of mice in the group of the compound as shown in Formula I whose feces reduction rate was lower than that of mice in the chemotherapeutic agent group was recorded. Table 4 lists various animal experiment combinations of chemotherapeutic agents and the compound as shown in Formula I, as well as the corresponding experimental results.

[2] = test system: Balb/c mice, constipation caused by continuous administration of a chemotherapeutic agent; experiment: Relieving effect on constipation caused by the continuous administration of a chemotherapeutic agent (Examples 385-405); format: in vivo; conditions: for Relative remission rate (%): Fluorouracil (5-Fu) 100 mg/kg intraperitoneal injection once a day for 3 days, experimental cycle 7 days
From the text: Balb/c mice were fed for 1 week, and then divided into groups. The experiment was divided into a control group, a chemotherapeutic agent group, and a group of the compound as shown in Formula I, each of which comprised 10 mice, to perform the administration experiment, for which the administration dosage, mode, time and frequency were shown in Table 6. The control group: being injected or intragastrically administered with the same solvent as that used in the group of the compound as shown in Formula I (the administration mode and time were shown in Table 6), and then being injected or intragastrically administered with the same solvent as that used in the group of the compound as shown in Formula I (the administration mode was shown in Table 6); the chemotherapeutic agent group: being injected or intragastrically administered with the same solvent as that used in the group of the compound as shown in Formula I (the administration mode and time were shown in Table 6), and then being injected or intragastrically administered with the chemotherapeutic agent (the type, administration mode, time and dosage were shown in Table 6); the group of the compound as shown in Formula I: being injected or intragastrically administered with the compound as shown in Formula I (the administration mode and time were shown in Table 6), and then being administered with the chemotherapeutic agent (the type, administration mode, time and dosage were shown in Table 6).
as §1, §2
as §3, with “6” for “4”

[3] = continuous administration of fluorouracil for less than 7 days
[4] = continuous administration of the chemotherapeutic agent for 7 days or less

Question: How did the “Relative remission rate (%)” value ([1]; Example 320, Fluorouracil 125 (F) and irinotecan 240 (I) mg/kg intraperitoneal injection single, compound subcutaneous injection 100 mg/kg single, 0.5 h before chemotherapeutic agent, cycle 7 days) turn out when `O=C1NCC2(CCCCC2)n2c1cc1cnc(Nc3ccc(N4CCC(N5CCOCC5)CC4)cn3)nc12` [Compound III] was run?
Answer: The value was 50%.

Question: What about the “Relative remission rate (%)” value ([1]; Example 321, Fluorouracil 125 (F) and irinotecan 240 (I) mg/kg intraperitoneal injection single, compound subcutaneous injection 100 mg/kg single, 24 h before chemotherapeutic agent, cycle 7 days) of the same molecule?
Answer: The value was 20%.

Question: What about the “Relative remission rate (%)” value ([1]; Example 349, Fluorouracil 100 (F), oxaliplatin 5 (O), irinotecan 100 (I) and tetrahydrofolic acid 100 (L) mg/kg intraperitoneal injection single, compound oral administration 150 mg/kg single, 6 h before chemotherapeutic agent, cycle 7 days) of the same molecule?
Answer: The value was 30%.

Question: What about the “Relative remission rate (%)” value ([1]; Example 350, Fluorouracil 100 (F), oxaliplatin 5 (O), irinotecan 100 (I) and tetrahydrofolic acid 100 (L) mg/kg intraperitoneal injection single, compound oral administration 150 mg/kg single, 12 h before chemotherapeutic agent, cycle 7 days) of the same molecule?
Answer: Its value is 30%.

Question: What about the “Relative remission rate (%)” value ([1]; Example 362, Etoposide 60 (E) and carboplatin 5 (C) mg/kg intraperitoneal injection single, compound oral administration 100 mg/kg single, 0.5 h before chemotherapeutic agent, cycle 10 days) of the same molecule?
Answer: The value was 50%.

Question: What about the “feces reduction rates compared with the chemotherapeutic agent group” value (shortened to “feces reduction rates”) [1] of the same molecule?
Answer: Its value is “reduced to different degrees”.

Question: And the “Relative remission rate (%)” value ([2]; Example 398, compound 100 mg/kg intravenous injection once a day for 3 days, 2 h before the chemotherapeutic agent)?
Answer: The value was 40%.

Question: What about the “relieving effects on constipation” value [2, 3] of the same molecule?
Answer: Its value is “significant relieving effects”.

Question: What about the “relieving effects on constipation” value [2, 4] of the same molecule?
Answer: Its value is “have relieving effects”.

Question: `O=C1NCC2(CCCCC2)n2c1cc1cnc(Nc3ccc(N4CCNCC4)cn3)nc12` [Compound II] was tested. Which “Relative remission rate (%)” value ([1]; Example 283, Oxaliplatin intravenous injection 25 mg/kg single, compound intramuscular injection 100 mg/kg single, 1 h before chemotherapeutic agent, cycle 7 days) did it give?
Answer: The value was 50%.

Question: What about the “Relative remission rate (%)” value ([1]; Example 284, Oxaliplatin intravenous injection 25 mg/kg single, compound intramuscular injection 100 mg/kg single, 6 h before chemotherapeutic agent, cycle 7 days) of the same molecule?
Answer: Its value is 30%.

Question: And the “Relative remission rate (%)” value ([1]; Example 285, Oxaliplatin intravenous injection 25 mg/kg single, compound intramuscular injection 100 mg/kg single, 12 h before chemotherapeutic agent, cycle 7 days)?
Answer: Its value is 30%.

Question: What about the “Relative remission rate (%)” value ([1]; Example 347, Fluorouracil 100 (F), oxaliplatin 5 (O), irinotecan 100 (I) and tetrahydrofolic acid 100 (L) mg/kg intraperitoneal injection single, compound intravenous injection 100 mg/kg single, 0.5 h before chemotherapeutic agent, cycle 7 days) of the same molecule?
Answer: The value was 70%.

Question: And the “Relative remission rate (%)” value ([1]; Example 348, Fluorouracil 100 (F), oxaliplatin 5 (O), irinotecan 100 (I) and tetrahydrofolic acid 100 (L) mg/kg intraperitoneal injection single, compound intravenous injection 100 mg/kg single, 2 h before chemotherapeutic agent, cycle 7 days)?
Answer: The value was 50%.

Question: And the “Relative remission rate (%)” value ([1]; Example 359, Gemcitabine (GEM) intraperitoneal injection 120 mg/kg single, compound oral administration 100 mg/kg single, 12 h before chemotherapeutic agent, cycle 8 days)?
Answer: Its value is 40%.

Question: What about the “Relative remission rate (%)” value ([1]; Example 361, Etoposide 60 (E) and carboplatin 5 (C) mg/kg intraperitoneal injection single, compound oral administration 100 mg/kg single, 2 h before chemotherapeutic agent, cycle 10 days) of the same molecule?
Answer: The value was 60%.

Question: And the “Relative remission rate (%)” value ([1]; Example 364, Gemcitabine 120 (G) and carboplatin 5 (C) mg/kg intravenous injection single, compound oral administration 100 mg/kg single, 24 h before chemotherapeutic agent, cycle 8 days)?
Answer: The value was 30%.

Question: And the “feces reduction rates” value [1]?
Answer: The value was “reduced to different degrees”.

Question: What about the “Relative remission rate (%)” value ([2]; Example 397, compound 100 mg/kg intraperitoneal injection once a day for 3 days, 0.5 h before the chemotherapeutic agent) of the same molecule?
Answer: The value was 20%.

Question: What about the “relieving effects on constipation” value [2, 3] of the same molecule?
Answer: The value was “significant relieving effects”.

Question: What about the “relieving effects on constipation” value [2, 4] of the same molecule?
Answer: Its value is “have relieving effects”.

Question: For `CC(C)N1CCN(c2ccc(Nc3ncc4cc5n(c4n3)C3(CCCCC3)CNC5=O)nc2)CC1` [Compound IV hydrochloride, Lerociclibdihydrochloride], which “Relative remission rate (%)” value ([1]; Example 353, Fluorouracil 100 (F), oxaliplatin 5 (O), irinotecan 100 (I) and tetrahydrofolic acid 100 (L) mg/kg intraperitoneal injection single, compound intraperitoneal injection 100 mg/kg single, 0.5 h before chemotherapeutic agent, cycle 7 days) is on record?
Answer: Its value is 20%.

Question: And the “Relative remission rate (%)” value ([1]; Example 354, Fluorouracil 100 (F), oxaliplatin 5 (O), irinotecan 100 (I) and tetrahydrofolic acid 100 (L) mg/kg intraperitoneal injection single, compound intraperitoneal injection 100 mg/kg single, 12 h before chemotherapeutic agent, cycle 7 days)?
Answer: The value was 60%.

Question: What about the “Relative remission rate (%)” value ([1]; Example 357, Topotecan intraperitoneal injection 10 mg/kg single, compound oral administration 100 mg/kg single, 24 h before chemotherapeutic agent, cycle 14 days) of the same molecule?
Answer: Its value is 30%.

Question: What about the “Relative remission rate (%)” value ([1]; Example 358, Topotecan intravenous injection 20 mg/kg single, compound oral administration 100 mg/kg single, 12 h before chemotherapeutic agent, cycle 14 days) of the same molecule?
Answer: The value was 70%.

Question: And the “Relative remission rate (%)” value ([2]; Example 400, compound intraperitoneal injection, 2 h before the chemotherapeutic agent, dosage cell prints 'Once a day, for 3 days', frequency cell 'Single')?
Answer: Its value is 50%.

Question: What about the “Relative remission rate (%)” value ([2]; Example 401, compound intraperitoneal injection, 12 h before the chemotherapeutic agent, dosage cell prints 'Once a day, for 3 days', frequency cell 'Single') of the same molecule?
Answer: The value was 30%.

Question: Which “Relative remission rate (%)” value ([1]; Example 246, Fluorouracil (5-Fu) intravenous injection 250 mg/kg single, compound oral administration 100 mg/kg single, 0.5 h before chemotherapeutic agent, cycle 10 days) does the source give for `CC(C)N1CCN(c2ccc(Nc3ncc4cc5n(c4n3)C3(CCCCC3)CNC5=O)nc2)CC1` [Compound IV, Lerociclib] here?
Answer: Its value is 30%.

Question: What about the “Relative remission rate (%)” value ([1]; Example 247, Fluorouracil (5-Fu) intravenous injection 250 mg/kg single, compound oral administration 100 mg/kg single, 4 h before chemotherapeutic agent, cycle 10 days) of the same molecule?
Answer: Its value is 60%.

Question: And the “Relative remission rate (%)” value ([1]; Example 248, Fluorouracil (5-Fu) intravenous injection 250 mg/kg single, compound oral administration 100 mg/kg single, 12 h before chemotherapeutic agent, cycle 10 days)?
Answer: The value was 20%.

Question: And the “Relative remission rate (%)” value ([1]; Example 351, Fluorouracil 100 (F), oxaliplatin 5 (O), irinotecan 100 (I) and tetrahydrofolic acid 100 (L) mg/kg intraperitoneal injection single, compound oral administration 100 mg/kg single, 4 h before chemotherapeutic agent, cycle 7 days)?
Answer: Its value is 60%.

Question: And the “Relative remission rate (%)” value ([1]; Example 352, Fluorouracil 100 (F), oxaliplatin 5 (O), irinotecan 100 (I) and tetrahydrofolic acid 100 (L) mg/kg intraperitoneal injection single, compound oral administration 100 mg/kg single, 24 h before chemotherapeutic agent, cycle 7 days)?
Answer: Its value is 30%.

Question: And the “Relative remission rate (%)” value ([1]; Example 363, Gemcitabine and carboplatin intraperitoneal injection 120 mg/kg single, compound oral administration 100 mg/kg single, 4 h before chemotherapeutic agent, cycle 8 days)?
Answer: The value was 60%.

Question: And the “feces reduction rates” value [1]?
Answer: The value was “reduced to different degrees”.

Question: What about the “Relative remission rate (%)” value ([2]; Example 399, compound 100 mg/kg oral administration once a day for 3 days, 4 h before the chemotherapeutic agent) of the same molecule?
Answer: The value was 50%.

Question: And the “relieving effects on constipation” value [2, 3]?
Answer: The value was “significant relieving effects”.

Question: And the “relieving effects on constipation” value [2, 4]?
Answer: The value was “have relieving effects”.
